PubChem BioAssay AID1963827 (Molecular Pharmacology Branch, DTP, NCI, 2024)

Test system: 994946-033-R-J1-PDC complex spheroid viability
Assay: Anticancer human tumor 994946-033-R-J1-PDC patient-derived melanoma cell line growth inhibition [POLQ]
Settings: for IC50: curve of first compound; for viability, T/C: stronger effect = lower value
In short: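 Complex spheroid viability model combining PDC tumour cells with endothelial (HUVEC) and MSC stromal cells. Novobiocin, ART-558 or RP6685 were tested singly and in combination with standard and investigational anticancer drugs. Each was titrated in half-log steps from near clinical Cmax, or from 10 microM where Cmax was unknown.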

[1] = second compound 0.0316 µM, first compound 0.0316 µM
[2] = second compound 0.0316 µM, first compound 0.1 µM
[3] = second compound 0.0316 µM, first compound 0.316 µM
[4] = second compound 0.0316 µM, first compound 1 µM
[5] = second compound 0.0316 µM, first compound 3.16 µM
[6] = second compound 0.0316 µM, first compound 10 µM
[7] = second compound 0.1 µM, first compound 0.0316 µM
[8] = second compound 0.1 µM, first compound 0.1 µM
[9] = second compound 0.1 µM, first compound 0.316 µM
[10] = second compound 0.1 µM, first compound 1 µM
[11] = second compound 0.1 µM, first compound 3.16 µM
[12] = second compound 0.1 µM, first compound 10 µM
[13] = second compound 0.316 µM, first compound 0.0316 µM
[14] = second compound 0.316 µM, first compound 0.1 µM
[15] = second compound 0.316 µM, first compound 0.316 µM
[16] = second compound 0.316 µM, first compound 1 µM
[17] = second compound 0.316 µM, first compound 3.16 µM
[18] = second compound 0.316 µM, first compound 10 µM
[19] = second compound 1 µM, first compound 0.0316 µM
[20] = second compound 1 µM, first compound 0.1 µM
[21] = second compound 1 µM, first compound 0.316 µM
[22] = second compound 1 µM, first compound 1 µM
[23] = second compound 1 µM, first compound 3.16 µM
[24] = second compound 1 µM, first compound 10 µM
[25] = second compound 3.16 µM, first compound 0.0316 µM
[26] = second compound 3.16 µM, first compound 0.1 µM
[27] = second compound 3.16 µM, first compound 0.316 µM
[28] = second compound 3.16 µM, first compound 1 µM
[29] = second compound 3.16 µM, first compound 3.16 µM
[30] = second compound 3.16 µM, first compound 10 µM
[31] = second compound 10 µM, first compound 0.0316 µM
[32] = second compound 10 µM, first compound 0.1 µM
[33] = second compound 10 µM, first compound 0.316 µM
[34] = second compound 10 µM, first compound 1 µM
[35] = second compound 10 µM, first compound 3.16 µM
[36] = second compound 10 µM, first compound 10 µM
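Also: spheroids exposed to drugs for 7 days.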
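For viability, T/C in this document: 100% = DMSO vehicle treated spheroids.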

Compound: COc1cc(C2c3cc4c(cc3C(OC3OC5COC(C)OC5C(O)C3O)C3COC(=O)C23)OCO4)cc(OC)c1O (centres undefined) + Cc1cccc(N(C)C(=O)C2C(O)CCN2c2nc(C)cc(C(F)(F)F)c2C#N)c1
- IC50 (second compound 0.0316 µM): 183 nM
- IC50 (second compound 0.1 µM): 164 nM
- IC50 (second compound 0.316 µM): 250 nM
- IC50 (second compound 1 µM): 207 nM
- IC50 (second compound 3.16 µM): 388 nM
- IC50 (second compound 10 µM): 1260 nM
- viability, T/C [1]: 76.3%
- viability, T/C [2]: 55.2%
- viability, T/C [3]: 42.6%
- viability, T/C [4]: 32.4%
- viability, T/C [5]: 14.2%
- viability, T/C [6]: 6.56%
- viability, T/C [7]: 77.8%
- viability, T/C [8]: 47.9%
- viability, T/C [9]: 44.9%
- viability, T/C [10]: 32.4%
- viability, T/C [11]: 10.9%
- viability, T/C [12]: 5.27%
- viability, T/C [13]: 79.7%
- viability, T/C [14]: 63.1%
- viability, T/C [15]: 34.4%
- viability, T/C [16]: 49.7%
- viability, T/C [17]: 12.9%
- viability, T/C [18]: 8.08%
- viability, T/C [19]: 89.2%
- viability, T/C [20]: 49.1%
- viability, T/C [21]: 47.2%
- viability, T/C [22]: 35.3%
- viability, T/C [23]: 13.5%
- viability, T/C [24]: 5.19%
- viability, T/C [25]: 72.5%
- viability, T/C [26]: 64.5%
- viability, T/C [27]: 56.8%
- viability, T/C [28]: 27.4%
- viability, T/C [29]: 14.1%
- viability, T/C [30]: 5.31%
- viability, T/C [31]: 67.5%
- viability, T/C [32]: 45.3%
- viability, T/C [33]: 63.3%
- viability, T/C [34]: 58.7%
- viability, T/C [35]: 14.8%
- viability, T/C [36]: 6.96%

Compound: COc1cccc2c1C(=O)c1c(O)c3c(c(O)c1C2=O)CC(O)(C(=O)CO)CC3OC1CC(N)C(O)C(C)O1 (centres undefined) + Cc1cccc(N(C)C(=O)C2C(O)CCN2c2nc(C)cc(C(F)(F)F)c2C#N)c1
- IC50 (second compound 0.0316 µM): < 31.6 nM
- IC50 (second compound 0.1 µM): < 31.6 nM
- IC50 (second compound 0.316 µM): < 31.6 nM
- IC50 (second compound 1 µM): < 31.6 nM
- IC50 (second compound 3.16 µM): < 31.6 nM
- IC50 (second compound 10 µM): < 31.6 nM
- viability, T/C [1]: 31.8%
- viability, T/C [2]: 10.5%
- viability, T/C [3]: 2.24%
- viability, T/C [4]: 1.98%
- viability, T/C [5]: 2.99%
- viability, T/C [6]: 0.53%
- viability, T/C [7]: 26.8%
- viability, T/C [8]: 6.95%
- viability, T/C [9]: 3.98%
- viability, T/C [10]: 0.54%
- viability, T/C [11]: 1.3%
- viability, T/C [12]: 1.07%
- viability, T/C [13]: 22.5%
- viability, T/C [14]: 7.12%
- viability, T/C [15]: 3.03%
- viability, T/C [16]: 2.42%
- viability, T/C [17]: 1.56%
- viability, T/C [18]: 0.77%
- viability, T/C [19]: 47.9%
- viability, T/C [20]: 7.31%
- viability, T/C [21]: 1.73%
- viability, T/C [22]: 2.31%
- viability, T/C [23]: 1.01%
- viability, T/C [24]: 0.51%
- viability, T/C [25]: 22.8%
- viability, T/C [26]: 7.88%
- viability, T/C [27]: 1.7%
- viability, T/C [28]: 1.41%
- viability, T/C [29]: 1.39%
- viability, T/C [30]: 0.69%
- viability, T/C [31]: 33.1%
- viability, T/C [32]: 8.28%
- viability, T/C [33]: 2.08%
- viability, T/C [34]: 1.32%
- viability, T/C [35]: 0.67%
- viability, T/C [36]: 0.65%
